“Also recorded” adds a separate entry of the source. Where two headings read alike, the source gives them in different places. No end group written: not given here.
Experiments:
[1] = tested on: cecal tissue explants; conditions: mouse, in vivo
[2] = tested on: mice; type: in vivo, mouse
[3] = tested on: mouse footpads; conditions: for oedema induced by TcdB2: footpad injection of TcdB2, antagonist pre-treatment
Experimental: The footpad toxin injection assay was performed as previously described. Briefly, mice were restrained in an incontinence pad and the footpad was held and subsequently injected using a 29.5G syringe into the plantar surface. […] Paw diameter changes were assessed by calculating a ratio relative to the un-injected foot. For each test toxin, 500 ng were administered in a volume of 20 μl of normal saline. Pharmacological assays were performed in female CDI mice, with pre-treatment with drugs 30 min to 1 h prior to toxin injection. For experiments involving transgenic mice, experiments were performed in male and female mice (age matched, 8-15 weeks).

[4] = tested on: C. difficile 630 Δerm; experiment: Antibiotic-treatment-induced CDI mouse model, C. difficile 630 Δerm; conditions: for histopathological scores: CDI mouse model, 630 Δerm, FIG. 4D; for histopathological scores / pathogen burden (C. difficile CFUs in faeces): WT mice; for pathogen burden (C. difficile CFUs in faeces): day 2 after infection
[5] = tested on: C. difficile M7404 (A-/B+); experiment: CDI mouse model, hypervirulent strain M7404 (TcdA-/TcdB2); conditions: for fatality: CDI with M7404 (A-/B+), mice; for histopathological scores of colitis: surviving mice, CDI with M7404
[6] = tested on: C. difficile 630 Δerm; experiment: C. difficile growth in vitro (OD600); conditions: 20 μM, 24 h
[7] = tested on: human brain pericytes; experiment: IL-8 secretion from cultured pericytes (ELISA); type: cell-based
Experimental: Primary human cultured brain vascular pericytes (ScienCell, #1200) were routinely cultured in special medium with supplement, FBS and penicillin streptomycin provided by the cell's vendor (ScienCell, #1201). Cells were subcultured when confluent and used up to passage 10. For secretion assays these were performed on early passage cells (passages 3-8). Cytokine secretion in cell culture medium was determined using ELISA based assays against IL-8 (Biolegend, 431504). The effect of CGRP on cultured pericytes was determined by incubating pericytes for 1 h with human CGRPB (Cayman, 24725).

[8] = cecum injection of TcdB (6 μg), mice pretreated with antagonist 30 min to 1 h before, FIG. 4C

Molecule | CGRP secretion [1] | oedema induced by TcdB2 [3] | histopathological scores [4] | pathogen burden (C. difficile CFUs in faeces) [4] | fatality [5] | histopathological scores of colitis [5] | histopathological scores [2, 8] | C. difficile growth rate / fitness (OD600) [6] | histopathological scores ([2]; mouse, in vivo) | other results
C=C(C)[C@]12C[C@@H](C)[C@@]34O[C@](Cc5ccccc5)(O[C@@H]1[C@@H]3C=C(COC(=O)Cc1ccc(O)c(OC)c1)C[C@]1(O)C(=O)C(C)=C[C@@H]41)O2 [RTX, resiniferatoxin] | reduced | – | – | – | – | – | – | – | – | SP levels [1]: reduced SP levels; histopathology upon TcdB administration ([2]; mouse, in vivo): less severe histopathology
C[C@@H](O[C@H]1OCCN(Cc2n[nH]c(=O)[nH]2)[C@H]1c1ccc(F)cc1)c1cc(C(F)(F)F)cc(C(F)(F)F)c1 [aprepitant] | – | prevented | reduced histopathological scores | reduced pathogen burden | markedly reduced | markedly reduced | reduced histopathological scores | not affected; also recorded: Neither drug influenced C. difficile growth rate | – | oedema induced by TcdA ([3]; footpad injection of TcdA, antagonist pre-treatment): prevented; also recorded: blocked; oedema induced by TcdB2 ([3]; listed as Aprepitant): can prevent oedema induced by TcdB2; oedema induced by TcdB ([3]; footpad injection of TcdB, antagonist pre-treatment): prevented oedema induced by TcdB; oedema induced by GTD-ciDT ([3]; footpad, Tac1-Cre mice infected with AAV-DTR): blocked; effect on C. difficile colonization and histopathological scores ([4]; Tac1 KO mice): nor had an effect
NCCCC[C@H](NC(=O)[C@@H](Cc1cc(Br)c(O)c(Br)c1)NC(=O)N1CCC(N2Cc3ccccc3NC2=O)CC1)C(=O)N1CCN(c2ccncc2)CC1 [olcegepant] | – | can prevent oedema induced by TcdB2; also recorded: prevented | reduced histopathological scores | reduced pathogen burden | markedly reduced | markedly reduced | reduced histopathological scores | not affected; also recorded: Neither drug influenced C. difficile growth rate | – | effect on C. difficile colonization and histopathological scores ([4]; Calcb KO mice): nor had an effect
CGRP: human CGRPβ (Cayman, 24725) added to cultured pericytes (ACNTATCVTHRLAGLLSRSGGMVKSNFVPTNVGSKAF; ends and bridges not checked; cysteine pairing not given here; UniProt P10092 82-118, looked up) | – | – | – | – | – | – | – | – | – | IL-8 secretion [7]: induced secretion of IL-8
substance P (RPKPQQFFGLM; not fully specified (C-terminus); ends and bridges not checked; UniProt P20366 58-68, looked up) [neuropeptide composed of a chain of 11 amino acids, tachykinin family] | restored | – | – | – | – | – | – | – | restored histopathological scores | susceptibility to TcdB (histopathology) ([2]; mouse, in vivo): restored the susceptibility
fremanezumab (antibody, chains of the INN, looked up, V domains shown) VH: EVQLVESGGGLVQPGGSLRLSCAASGFTFSNYWISWVRQAPGKGLEWVAEIRSESDASATHYAEAVKGRFTISRDNAKNSLYLQMNSLRAEDTAVYYCLAYFDYGLAIQNYWGQGTLVTVSS VL: EIVLTQSPATLSLSPGERATLSCKASKRVTTYVSWYQQKPGQAPRLLIYGASNRYLGIPARFSGSGSGTDFTLTISSLEPEDFAVYYCSQSYNYPYTFGQGTKLEIK | – | – | reduced histopathological scores | – | – | – | – | – | reduced histopathological scores | –

From patent US20250064836A1 (priority 2023, published 2025)
